Measurements taken from patent publication US20250296940A1, “ANNULATED 2-AMINO-3-CYANO THIOPHENES AND DERIVATIVES FOR THE TREATMENT OF CANCER” (Boehringer Ingelheim Int'l GmbH Corp., priority 2021, published 2025).
pIC50: −log10 of the molar value.

target: T1, protein-protein interaction between SOS1 and KRAS G12C (Homo sapiens, UniProt P01116, C118S/C51S/C80L/G12C); assay: KRAS::SOS1 AlphaScreen Binding Assay; details: Table 19, intermediates C-3/C-4; 7.5 nM KRAS G12C, 10 μM GDP, 5 nM GST-SOS1; read-out: IC50 G12C::SOS 1
T1 construct: His6 (N); SOS1: in-house or Viva Biotech Ltd; host or cells: E. coli (KRAS)
Source text: This assay can be used to examine the potency with which compounds according to the invention binding to KRAS G12C inhibit the protein-protein interaction between SOS1 and KRAS G12C. […] Low IC50 values in this assay setting are indicative of strong inhibition of protein-protein interaction between SOS1 and KRAS:
• GST-tagged SOS1 (564_1049_GST_TEV_ECO) produced in-house • GST-TEV-SOS1 (564-1049) is purchased from Viva Biotech Ltd. • The expression construct of KRAS G12C (amino acids 1-169 of reference sequence P01116-2 (uniprot), with additional mutations: C51S, C80L, and C118S) containing a C-terminal avi-tag was obtained by gene synthesis (GeneArt, Thermo Fisher) in donor vector (pDONR-221) and transferred by recombinant cloning into pDEST17 vector bearing an N-terminal His6-tag. The protein was expressed in E. coli and the purified protein was biotinylated with the E. coli biotin ligase (BirA) before usage. • GDP (Sigma Cat No G7127) • AlphaLISA Glutathione Acceptor Beads (PerkinElmer, Cat No AL109) • AlphaScreen Streptavidin Donor Beads (PerkinElmer Cat No 6760002) • Assay plates: Proxiplate-384 PLUS, white (PerkinElmer, Cat No 6008289)
7.5 nM (final assay concentration) KRAS G12C, 10 μM (final assay concentration) GDP and 5 nM (final assay concentration) GST-SOS1 are mixed in assay buffer prior to use and kept at room temperature.
AlphaLISA Glutathione Acceptor Beads and AlphaScreen Streptavidin Donor Beads are mixed in assay buffer at a concentration of 10 μg/mL (final assay concentration) each prior to use and kept at room temperature.
Compounds are diluted to a final start concentration of 100 μM and are tested in duplicate. Assay-ready plates (ARPs) are generated using an Access Labcyte Workstation with a Labcyte Echo 550 or 555 acoustic dispenser. For compound a start concentration of 100 μM, 150 nL of compound solution is transferred per well in 11 concentrations in duplicate with serial 1:5 dilutions.
The assay is run using a fully automated robotic system in a darkened room below 100 Lux. 10 μL of KRAS::SOS1 GDP mix is added into columns 1-24 to the 150 nL of compound solution (final dilution in the assay 1:100, final DMSO concentration 1%).
After 30 minutes incubation time 5 μL of bead mix is added into columns 1-23. Plates are kept at room temperature in a darkened incubator. After further 60 minutes incubation, the signal is measured using a PerkinElmer Envision HTS Multilabel Reader using the AlphaScreen specifications from PerkinElmer. Each plate contains the following controls: • diluted DMSO+KRAS::SOS1 GDP mix+bead mix • diluted DMSO+KRAS::SOS1 GDP mix
IC50 values are calculated and analyzed using a 4 parametric logistic model.
Tables of example compounds disclosed herein contain IC50 values determined using the above assay.

T1 sequence (P01116 1-169 isoform P01116-2 G12C/C51S/C80L/C118S): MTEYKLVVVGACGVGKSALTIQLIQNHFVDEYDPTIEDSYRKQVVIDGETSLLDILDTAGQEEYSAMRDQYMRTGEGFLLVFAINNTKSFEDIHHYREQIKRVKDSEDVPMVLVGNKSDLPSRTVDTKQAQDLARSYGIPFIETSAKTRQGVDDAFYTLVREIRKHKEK

Compared with `C[C@H](Oc1cc(N2C[C@H](C)N[C@@H](C)C2)nc(-c2noc3c2CCC[C@@]32CCCc3sc(N)c(C#N)c32)n1)[C@@H]1CCCN1C` [C-4a], `C[C@H](Oc1nc(-c2noc3c2CCC[C@@]32CCCc3sc(N)c(C#N)c32)cc(N2C[C@H](C)N[C@@H](C)C2)n1)[C@@H]1CCCN1C` [C-4c] is 1.19 log units lower in pIC50: 8.62 for the first, 7.43 for the second. The first is the more potent here.

First: CNC1CCN(c2cc(O[C@@H](C)[C@@H]3CCCN3C)nc(-c3noc4c3CCC[C@@]43CCCc4sc(N)c(C#N)c43)n2)CC1 [C-4e]
Second: C[C@H](Oc1cc(N2CCNCC2)nc(-c2noc3c2CCC[C@@]32CCCc3sc(N)c(C#N)c32)n1)[C@@H]1CCCN1C [C-4d]
The pIC50 of the first is 0.44 log units lower: 8.05 for the first, 8.49 for the second.

Going from `C[C@H](Oc1nc(-c2onc3c2CCC[C@@]32CCCc3sc(N)c(C#N)c32)cc(N2CCNC3(CC3)C2)n1)[C@@H]1CCCN1C` [C-3e] to `C[C@H](Oc1cc(N2CCNC3(CC3)C2)nc(-c2onc3c2CCC[C@@]32CCCc3sc(N)c(C#N)c32)n1)[C@@H]1CCCN1C` [C-3b], the pIC50 rises from 7.35 to 8.60 (1.25 log units).

`C[C@H](Oc1cc(N2C[C@H](C)N[C@@H](C)C2)nc(-c2onc3c2CCC[C@@]32CCCc3sc(N)c(C#N)c32)n1)[C@@H]1CCCN1C` [C-3a] and `C[C@H](Oc1cc(N2C[C@H](C)NC3(CC3)C2)nc(-c2onc3c2CCC[C@@]32CCCc3sc(N)c(C#N)c32)n1)[C@@H]1CCCN1C` [C-3d] are within 0.2 log units of each other in pIC50: 8.34 for the first, 8.39 for the second.

With `C[C@H](Oc1cc(N2CCNC3(CC3)C2)nc(-c2noc3c2CCC[C@@]32CCCc3sc(N)c(C#N)c32)n1)[C@@H]1CCCN1C` [C-4b] the pIC50 was 8.72.
